Assay results: patent US20040072871A1, “Novel thiophene derivatives, their process of preparation and the pharmaceutical compositions which comprise them” (priority 2002, published 2004)
Where a name gives a salt, the structure may show the parent alone.

Columns and labels:
MMP-12 = MMP-12 (Homo sapiens, UniProt P39900); assay: In vitro inhibition of proteolysis of fluorogenic peptide substrate FP-1 by MMP-12; assay type: biochemical; details: substrate FP-1 10 μM, 20 minutes at ambient temperature, compounds tested 0.3 to 30 μM
Chain of MMP-12 (P39900 106-470): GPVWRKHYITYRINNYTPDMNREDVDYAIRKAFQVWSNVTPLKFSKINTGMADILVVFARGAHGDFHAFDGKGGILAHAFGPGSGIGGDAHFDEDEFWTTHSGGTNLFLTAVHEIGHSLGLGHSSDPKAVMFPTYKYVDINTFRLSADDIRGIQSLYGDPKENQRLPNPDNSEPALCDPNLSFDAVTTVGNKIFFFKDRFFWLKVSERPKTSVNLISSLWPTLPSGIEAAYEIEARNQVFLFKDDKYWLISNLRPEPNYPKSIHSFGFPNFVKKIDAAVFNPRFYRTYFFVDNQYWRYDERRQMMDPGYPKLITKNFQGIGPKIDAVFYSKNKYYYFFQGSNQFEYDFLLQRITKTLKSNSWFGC
Method: (§1) The inhibitory activity of the compounds of formula (I) with regard to metalloproteinase-12 is evaluated by testing the ability of the compounds of the invention to inhibit the proteolysis of a peptide substrate by MMP-12.
(§2) The inhibitory activity of a compound of formula (I) is expressed as IC50 value, which represents the concentration of inhibitor at which a degree of inhibition of the metalloproteinase of 50% is observed.
(§3) The reaction begins with the sequential addition of 41 μl of substrate FP-1 (final concentration of 10 μM) to a buffer solution of 50 mM of Tris-HCl and 10 mM of CaCl2, which comprises 5 mM of hydroxamic acid and 5 μl of the enzyme diluted in a 0.005% Brij-35 buffer solution. The microplates are incubated for 20 minutes at ambient temperature. The compounds of the invention are tested at concentrations varying from 0.3 to 30 μM.
(§4) The measurement of the amount of proteolysis of the peptide substrate is monitored by a measurement of absorbance at 405 nm using a microplate spectrophotometer, at ambient temperature. The IC50 values are calculated from curves in which the percentage of the catalytic activity relative to the control is represented on the […] and the concentration of inhibitor is represented on the Y axis.

MMP-13 = MMP-13 (Homo sapiens, UniProt P45452); assay: MMP-12 test adapted to MMP-13; assay type: biochemical
Method: as §1, §2, §3, §4
The test described above for the inhibition of MMP-12 is adapted and used to determine the ability of the compounds of formula (I) to inhibit the metalloproteinases MMP-1, MMP-2, MMP-3, MMP-7, MMP-9, MMP-13 and MMP-14. […] More specifically, the compounds of the present invention generally show a selectivity with a factor of greater than 50 with respect to the metalloproteinases mentioned above, except towards MMP-13. Thus, the compounds of the present invention also show an inhibitory activity with regard to MMP-13, making it possible to also use the pharmaceutical compositions comprising one or more compounds of the invention in the treatment of pathologies related to activity of MMP-13. Mention may be made, among these pathologies, by way of indication and without implied limitation, of cancer, osetoporosis, osteoarthritis, arthritis, rheumatoid arthritis, atherosclerosis, multiple sclerosis, cardiac insufficiency, asthma and chronic obstructive pulmonary disease.

Row | Compound | IC50 (MMP-12) [µM] | IC50 (MMP-13) [µM]
1 | 2-[4-({[4-(4′-Benzoyl-4-biphenyl)thien-2-yl]carboxamido}-methyl)phenyl]acetic acid [Example 107] | 0.05 | 
2 | 3-[4-({[4-(4-Trifluoromethoxyphenyl)thien-2-yl]carboxamido}-methyl)phenyl]propanoic acid [Example 63] | 0.49 | 3.8
3 | O=C(NCCN1CCOCC1)c1cc(-c2ccc(-c3cccnc3)cc2)cs1 [Example 11, 4-[4-(Pyridin-3yl)phenyl]-N-(2-morpholin-4-ylethyl)thiophene-2-carboxamide] | 0.91 | 4.8
4 | O=C(NCCN1CCOCC1)c1cc(-c2ccc(N3CCCC3)cc2)cs1 [Example 14, 4-[4-(Pyrrolidin-1-yl)phenyl]-N-(2-morpholin-4-ylethyl)thiophene-2-carboxamide] | 0.86 | 2.08
5 | O=C(NCCN1CCOCC1)c1cc(-c2ccc(C3CCCCC3)cc2)cs1 [Example 21, 4-[4-(Cyclohexyl)phenyl]-N-(2-morpholin-4-ylethyl)thiophene-2-carboxamide] | 0.46 | 11
6 | Cn1ccc(-c2ccc(-c3csc(C(=O)NCCN4CCOCC4)c3)cc2)n1 [Example 22, 4-[4-(1-Methyl-1H-pyrazol-3-yl)phenyl]-N-(2-morpholin-4-ylethyl)thiophene-2-carboxamide] | 0.915 | 11.6
7 | O=C(O)CCc1ccc(NC(=O)c2cc(-c3ccc(OC(F)(F)F)cc3)cs2)nc1 [Example 27] | 0.845 | 6.1
8 | O=C(NC[C@H]1CC[C@H](C(=O)O)CC1)c1cc(-c2ccc(OC(F)(F)F)cc2)cs1 [Example 35, trans-4-({[4-(4-Trifluoromethoxyphenyl)thien-2-yl]-carboxamido}methyl)cyclohexanecarboxylic acid] | 0.405 | 3.45
9 | O=C(O)Cc1ccc(CNC(=O)c2cc(-c3ccc(OC(F)(F)F)cc3)cs2)cc1 [Example 37, 2-[4-({[4-(4-Trifluoromethoxyphenyl)thien-2-yl]carboxamido}-methyl)phenyl]acetic acid] | 0.427 | 4.53
10 | O=C(O)Cc1cccc(CNC(=O)c2cc(-c3ccc(OC(F)(F)F)cc3)cs2)c1 [Example 41, 2-[3-({[4-(4-Trifluoromethoxyphenyl)thien-2-yl]carboxamido}-methyl)phenyl]acetic acid] | 0.883 | 5.17
11 | O=C(NCC1CCC(C(=O)O)CC1)c1cc(-c2ccc(OC(F)(F)F)cc2)cs1 (stereo not drawn) [Example 43, 4-({[4-(4-Trifluoromethoxyphenyl)thien-2-yl]carboxamido}-methyl)cyclohexanecarboxylic acid] | 0.715 | 5.37
12 | O=C(O)c1ccc(CNC(=O)c2cc(-c3ccc(OC(F)(F)F)cc3)cs2)nc1 [Example 45, 6-({[4-(4-Trifluoromethoxyphenyl)thien-2-yl]carboxamido}-methyl)nicotinic acid] | 0.92 | 2.85
13 | O=C(O)c1ccc(CNC(=O)c2cc(-c3ccc(OC(F)(F)F)cc3)cs2)cc1 [Example 47, 4-({[4-(4-Trifluoromethoxyphenyl)thien-2-yl]carboxamido}-methyl)benzoic acid] | 0.436 | 3.59
14 | O=C(O)Cc1ccc(NC(=O)c2cc(-c3ccc(OC(F)(F)F)cc3)cs2)cc1 [Example 55, (4-{[4-(4-Trifluoromethoxyphenyl)thien-2-yl]carboxamido}-phenyl)acetic acid] | 0.615 | 15.8
15 | O=C(O)CCc1cccc(CNC(=O)c2cc(-c3ccc(OC(F)(F)F)cc3)cs2)c1 [Example 65, 3-[3-({[4-(4-Trifluoromethoxyphenyl)thien-2-yl]carboxamido}-methyl)phenyl]propanoic acid] | 0.685 | 2.9
16 | O=C(NCCN1CCOCC1)c1cc(-c2ccc(-c3cccc(O)c3)cc2)cs1 [Example 74, 4-[4-(3-Hydroxyphenyl)phenyl]-N-(2-morpholin-4-ylethyl)thiophene-2-carboxamide] | 0.465 | 6.25
17 | CC(=O)c1cccc(-c2ccc(-c3csc(C(=O)NCCN4CCOCC4)c3)cc2)c1 [Example 76] | 0.48 | 3.7
18 | O=C(O)Cc1ccc(CNC(=O)c2cc(-c3ccc(Oc4ccccc4)cc3)cs2)cc1 [Example 81, 2-[4-({[4-(4-Phenoxyphenyl)thien-2-yl]carboxamido}methyl)phenyl]-acetic acid] | 0.5 | 3.7
19 | O=C(NCc1cc(F)c(O)c(F)c1)c1cc(-c2ccc(OC(F)(F)F)cc2)cs1 [Example 84, N-(3,5-Difluoro-4-hydroxybenzyl)-4-(4-trifluoromethoxyphenyl)-thiophene-2-carboxamide] | 0.56 | 3.06
20 | O=C(NC[C@H]1CC[C@H](C(=O)O)CC1)c1cc(-c2ccc(OC(F)(F)F)cc2)cs1 [Example 99, trans-4-({[4-(4-Trifluoromethoxyphenyl)thien-2-yl]carboxamido}-methyl)cyclohexanecarboxylic acid, Sodium Salt] | 0.45 | 5
21 | O=C(NCCN1CCOCC1)c1cc(-c2ccc(-c3cccc(CO)c3)cc2)cs1 [Example 101, 4-{4-[3-(Hydroxymethyl)phenyl]phenyl}-N-(2-morpholin-4-ylethyl)-thiophene-2-carboxamide] | 0.99 | 3.7
22 | O=C(NC1CCCCC1CO)c1cc(-c2ccc(OC(F)(F)F)cc2)cs1 (stereo not drawn) [Example 121, N-[2-(Hydroxymethyl)cyclohexyl]-4-(4-trifluoromethoxyphenyl)-thiophene-2-carboxamide] | 0.72 | 

Now from value to compound:

Row | IC50 (MMP-12) [µM] | IC50 (MMP-13) [µM] | Compound
23 | 0.13 | 0.78 | 2-(4-{[(4-{4-[4-(2-Oxopropyl)-3-hydroxyphenyl]phenyl}thien-2-yl)carboxamido]methyl}phenyl)acetic acid [Example 119]
24 | 0.32 | 3.95 | O=C(O)CC[C@@H]1CCC[C@@H](NC(=O)c2cc(-c3ccc(OC(F)(F)F)cc3)cs2)C1 (relative stereo) [Example 125, trans-3-(3-{[4-(4-Trifluoromethoxyphenyl)thien-2-yl]-carboxamido}cyclohexyl)propanoic acid]
25 | 0.35 | 30 | O=C(NCCN1CCOCC1)c1cc(-c2ccc(-c3ccccc3)cc2)cs1 [Example 2, 4-(4-Biphenyl)-N-(2-morpholin-4-ylethyl)thiophene-2carboxamide]
26 | 0.105 | 1.5 | O=C(NCCN1CCOCC1)c1cc(-c2ccc(-c3ccncc3)cc2)cs1 [Example 9, 4-[4-(Pyridin-4-yl)phenyl]-N-(2-morpholin-4-ylethyl)thiophene-2-carboxamide]
27 | 0.022 | 0.285 | O=C(NC[C@H]1CC[C@H](C(=O)O)CC1)c1cc(-c2ccc(-c3ccncc3)cc2)cs1 [Example 70, 4-[({4-[4-(Pyridinyl)phenyl]thien-2-yl}carboxamido)methyl]cyclo-hexanecarboxylic acid hydrochloride]
28 | 0.057 | 0.13 | CC(=O)c1ccc(-c2ccc(-c3csc(C(=O)NCCN4CCOCC4)c3)cc2)cc1 [Example 72, 4-[4-(4-Acetylphenyl)phenyl]-N-(2-morpholin-4-ylethyl)thiophene-2-carboxamide]
29 | 0.355 | 0.4 | O=C(NCCN1CCOCC1)c1cc(-c2ccc(-c3ccc(F)cc3)cc2)cs1 [Example 73, 4-[4-(4-Fluorophenyl)phenyl]-N-(2-morpholin-4-ylethyl)thiophene-2-carboxamide]
30 | 0.34 | 0.27 | CS(=O)(=O)c1ccc(-c2ccc(-c3csc(C(=O)NCCN4CCOCC4)c3)cc2)cc1 [Example 75, 4-[4-(4-Methylsulphonylphenyl)phenyl]-N-(2-morpholin-4-ylethyl)thiophene2-carboxamide]
31 | 0.05 |  | CCC(=O)c1ccc(-c2ccc(-c3csc(C(=O)NCc4ccc(CC(=O)O)cc4)c3)cc2)cc1 [Example 103, 2-[4-({[4-(4′-Propionyl-4-biphenyl)thien-2-yl]carboxamido}-methyl)phenyl]acetic acid]
32 | 0.05 |  | O=C(O)Cc1ccc(CNC(=O)c2cc(-c3ccc(-c4ccc(C(=O)C5CC5)cc4)cc3)cs2)cc1 [Example 105, 2-[4-({[4-(4′-Cyclopropylcarbonyl-4-biphenyl)thien-2-yl]-carboxamido}methyl)phenyl]acetic acid]
33 | 0.165 | 0.4 | N#CCc1ccc(-c2ccc(-c3csc(C(=O)NCc4ccc(CC(=O)O)cc4)c3)cc2)cc1 [Example 109, 2-[4-({[4-(4′-Cyanomethyl-4-biphenyl)thien-2-yl]carboxamido}-methyl)phenyl]acetic acid]
34 | 0.14 |  | CC(=O)c1ccc(-c2ccc(-c3csc(C(=O)NCc4ccc(CC(=O)O)cc4)c3)cc2)cc1O [Example 113]
